A value given as a limit tells only on which side of the number the result lay.

Consider seven substances from publication PMC2832019, “In Vitro Metabolic and Mitogenic Signaling of Insulin Glargine and Its Metabolites” (PLoS ONE, 2010).

One data set has as its system human IR-A. Put plainly: IR-A autophosphorylation (In-Cell Western). The conditions noted are these: for EC50: CHO cells overexpressing IR-A, 15 min at 37°C, In-Cell Western, means ± SEM, at least three times, read-out: IR-A auto-phosphorylation EC50. It counts as cell-based. The source says:
CHO cells expressing either the IR-A or the IR-B isoform were used for IR autophosphorylation assays using In-Cell Western. For the analysis of IGF1R autophosphorylation the receptor was overexpressed in a mouse embryo fibroblast 3T3 Tet off cell line (BD Bioscience, Heidelberg, Germany) that was stably transfected with IGF1R tetracycline-regulatable expression plasmid resulting in the expression of ∼2.6×10^5 IGF1R per cell (as determined by FACS analysis, unpublished data). In order to determine the receptor tyrosine phosphorylation level, cells were seeded into 96-well plates and grown for 48 h. Cells were serum starved with serum-free medium αMEM (PAN Biotech GmbH, Aidenbach, Germany) for 3–4 h. […] After incubation the medium was discarded and the cells were fixed in 3.75% freshly prepared para-formaldehyde for 20 min. Cells were permeabilized with 0.1% Triton-X-100 in PBS for 20 min. Blocking was performed with Odyssey blocking buffer (LI-COR, Bad Homburg, Germany) overnight at 4°C. Anti-pTyr 4G10 (Millipore, Schwalbach, Germany) was incubated for 2 h at room temperature. After incubation of the primary antibody, cells were washed with PBS+0.1% Tween20. The secondary anti-mouse-IgG-800-CW antibody (Rockland, Gilbertsville, PA, USA) was incubated for 1 h. Results were normalized by the quantification of DNA with TO-PRO3 dye (Invitrogen, Karlsruhe, Germany). Data were obtained as relative units (RU) and are presented as fold over basal.
(§1) For each experiment, IC50 or EC50 values were obtained using the 4-parameter logistic model according to Ratkowsky and Reedy (1986). The adjustment was obtained by non-linear regression using the Levenberg-Marquardt algorithm in SAS v9.1.3 software via Biost@t-Speed V2.0-LTS internal application. If necessary, lower and upper asymptotes were set to 0 and 100, respectively.
(§2) The binding of a constant concentration of [^125I]insulin to plasma membranes from CHO cells overexpressing either IR-A or IR-B was measured in presence of increasing concentrations of unlabeled competing ligand after incubation at room temperature for 12 h. All data has been corrected for non-specific binding and are expressed as percentage of [^125I]insulin in absence of competing ligand. To analyze the insulin-stimulated activation and subsequent autophosphorylation of the insulin receptor CHO cells overexpressing the human IR-A (C) or IR-B (D) were stimulated for 15 min at 37°C with increasing concentrations of peptides, then the cells were fixed with 3.7% PFA and the amount of phosphotyrosines was analyzed via In-Cell Western. The data represent mean values ± SEM of at least 3 individual experiments measured in quadruplicate.
Insulin receptor autophosphorylation was studied using CHO cells overexpressing either IR-A or IR-B. For detection an immunocytochemical microplate assay (In-Cell Western) based on two-colour fluorescence was applied.

The conditions of data set [1]: no reference given, cited from earlier work. The source says:
These alterations cause a shift in the isoelectric point from pH 5.4 to 6.7. Following subcutaneous administration as a clear solution of pH 4, insulin gla ...

The subject of a further data set is MCF10. The settings on record: benign cell line; ref [15]; cited from earlier work. The text has this: A correlation between IGF1R autophosphorylation and cell proliferation has been recently assumed by Shukla et al., who observed an enhanced growth of the malignant cell line MCF7 after insulin glargine stimulation. The authors have observed 10% and 50% increases of cellular proliferation at 0.31 and about 15 nmol/L. This effect seemed to be linked to activation of the IGF1R and the MAPK pathway, since siRNA knockdown of IGF1R decreased the response. Unfortunately, no dose-response curve of IGF1R autophosphorylation as well as no proliferation data from siRNA knockdown of IR have ...

The subject of a further data set is human IR-B. Put plainly: Competitive receptor binding (SPA), IR-B. The conditions noted are these: for IC50: SPA, WGA PVT PEI beads, 2 µg membranes from CHO cells overexpressing IR-B, 100 pmol/L A14[^125I]-insulin, pH 7.8, 12 h, 23°C, means ± SEM, at least three times, read-out: IR-B affinity IC50; for IR-B binding, less active than human insulin: decrease relative to human insulin. The method, then: The binding of the different insulins to the human IR-A and IR-B was analyzed in a competitive binding assay using the scintillation proximity assay as previously described, [30]. […] Briefly, cells were grown to confluence and gently detached, transferred to a centrifugation tube followed by centrifugation for 10 minutes at 600×g at 4°C. The pellet was resuspended in ice-cold 2.25 STM buffer (2.25 mol/L sucrose, 5 mmol/L Tris-HCl pH 7.4, 5 mmol/L MgCl2, 1x Complete Protease Inhibitor) and disrupted using a hand-held Dounce homogenizer followed by sonication. This homogenate was transferred to a centrifugation tube, overlaid with 0.8 STM buffer (0.8 mol/L sucrose, 5 mmol/L Tris-HCl pH 7.4, 5 mmol/L MgCl2, 1x Complete Protease Inhibitor) and centrifuged for 90 minutes at 100 000×g at 4°C. The emerging pellicle at the interface was collected, transferred to a new tube and washed two times with PBS by centrifugation for 10 minutes at 1500×g. The final pellet was resuspended in a small volume of dilution buffer (50 mmol/L Tris-HCl pH 7.4, 5 mmol/L MgCl2, 1x Complete Protease Inhibitor) and homogenized with a Dounce homogenizer. These plasma membrane preparations were stored until usage at –80°C.
Binding experiments were conducted in 96-well microplates. Per well 2 µg of membranes were incubated with 0.25 mg wheat germ agglutinin polyvinyltoluene polyethylenimine SPA beads, 100 pmol/L A14[^125I]-insulin and various concentrations of unlabeled insulins in a binding buffer containing 0.05 mol/L Tris-HCl pH 7.8, 0.15 mol/L NaCl, 0.1% BSA, Complete Protease Inhibitor for 12 hours at room temperature (23°C). The radioactivity was measured at equilibrium in a microplate scintillation counter (Wallac Microbeta, Freiburg, Germany).
as §1, §2

The subject of a further data set is insulin receptor. The conditions noted are these: cited from earlier work. The text has this:
Accordingly, a good correlation between the potency in insulin receptor binding, induction of autophosphorylation and stimulation of lipid synthesis has been observed for insulin analogs. […] Taken together ...

Another data set concerns Saos-2. More on the design: method as in PMID 10866053. The settings on record: ref [12]; cited from earlier work.
The conditions of data set [2]: after injection, healthy subjects and patients with type 1 diabetes; ref [52]–[55]; cited from earlier work. The source says: The therapeutic insulin glargine concentrations reported so far are 80- to 200-fold below the total plasma concentrations of IGF-1. […] Therefore, the concentration of free IGF-1 may be within the range of the plasma concentration of insulin glarg ...

For data set [3] the following is noted: in vivo, sc; cited from earlier work.
The conditions of data set [4]: in vivo; cited from earlier work.
Setting [5] is: relative to human insulin, ref [12].

Consider “Human insulin: human insulin produced by recombinant DNA techniques or enzymatic semisynthesis”, for which the EC50 in the data set on human IR-A amounted to 11 ± 1.3 nM. Also, the isoelectric point in data set [1] is 5.4 pH. In the data set with MCF10, the “difference between human insulin and insulin glargine” value is “did not show any difference”.

Consider “IGF-1: IGF-1 obtained from R&D Systems and Cell Sciences”, for which the “IR-B affinity less potent than human insulin” value with human IR-B (IR-B, relative to human insulin) is listed as around 300 fold. On human IR-B, the half-inhibitory concentration (IC50) stood at 171 ± 50 nM. Moreover, the EC50 with human IR-A amounted to 449 ± 61.7 nM.

Consider [Asp^B10]insulin, for which, on human IR-B, the IC50 worked out at 0.21 ± 0.03 nM. In addition, the “IR-B binding, more potent relative to human insulin” value with human IR-B (relative to human insulin) amounted to 2.7 fold. Further, in the data set on human IR-A, the EC50 worked out at 5.1 ± 0.7 nM. Further, the “affinity towards IR and IGF1R” value in the data set with insulin receptor (IR and IGF1R, relative to human insulin, ref [12]) is “higher affinity towards both IR and IGF1R”. In the data set on insulin receptor (ref [12]), the “occupancy time for the IR” value is “prolonged occupancy time”. For the same substance, the occupancy of receptor entry with insulin receptor (ref [50]) is given as “prolonged occupancy”. Further, the “proliferation rate of Saos-2” value with Saos-2 was “higher proliferation rate”.

In the case of “[Gly^A21,Arg^B31,Arg^B32]insulin [Glargine]”, at human IR-B, the half-inhibitory concentration (IC50) stood at 1.1 ± 0.12 nM and the “IR-B binding, less active than human insulin” value is 40–50%. The half-maximal effective concentration (EC50) with human IR-A came to 18.4 ± 2.4 nM. Further, the “decrease in IR-A autophosphorylation activity” value in the data set on human IR-A (relative to human insulin) is 30–50%. Also, the dissociation rate result with insulin receptor (relative to human insulin, ref [12], [51]) was “dissociation rate similar to that of human insulin”. For the same substance, in the data set on insulin receptor (setting [5]), the “insulin receptor binding relative to human insulin” value was 86%. In data set [1], the isoelectric point was 6.7 pH. The solubility entry in data set [1] (physiological pH) is recorded as “low solubility at physiological pH”. Also, the “difference between human insulin and insulin glargine” value in the data set on MCF10 is reported as “did not show any difference”. The “peak free serum insulin glargine level” value in [2] is given as below 200 pmol/L.

For the substance [Gly^A21,Arg^B31]insulin [Glargine IM], on human IR-B, the concentration for half-maximal inhibition (IC50) came to 1.08 ± 0.06 nM and the “IR-B binding, less active than human insulin” value is 40–50%. In the data set on human IR-A, the half-maximal effective concentration (EC50) worked out at 23.1 ± 2.7 nM. Also, the amount of metabolite result in data set [3] is “only in minor quantities”. In [4], the “plasma levels of metabolites” value is given as “minor species only”.

In the case of “[Gly^A21,des-Thr^B30]insulin [Glargine M2]”, at human IR-B, the half-inhibitory concentration (IC50) was 1.09 ± 0.06 nM and the “IR-B binding, less active than human insulin” value is reported as 40–50%. In addition, the EC50 with human IR-A stood at 19.2 ± 1.6 nM. Further, in data set [4], the “plasma levels of metabolites” value is recorded as “significant plasma levels”.

Turning to [Gly^A21]insulin [Glargine M1], at human IR-B, the IC50 was 1.35 ± 0.2 nM and the “IR-B binding, less active than human insulin” value is 40–50%. The EC50 with human IR-A amounted to 18.6 ± 2.5 nM. Also, in the data set with insulin receptor (setting [5]), the “insulin receptor binding relative to human insulin” value is on record as 78%. The “plasma levels of metabolites” value in [4] was “significant plasma levels”.
